From patent publication US9624239B2, “Protein kinase inhibitors” (Pharmascience Inc., priority 2011, dated 2017)

Assays:
mouse splenocytes = experiment: Splenic cell proliferation assay (anti-IgM stimulated B cell proliferation, Cell Titer-Glo); format: cell-based; conditions: Splenocyte; CD1 mouse splenocytes, 1 h pre-treatment, 2.5 ug/ml anti-IgM F(ab')2 for 72 h; read-out: EC50 (nM), Inhibition of splenic cell proliferation
Description: Splenic Cell Proliferation Assay
Splenocytes were obtained from 6 week old male CD1 mice (Charles River Laboratories Inc.). Mouse spleens were manually disrupted in PBS and filtered using a 70 μm cell strainer followed by ammonium chloride red blood cell lysis. Cells were washed, resuspended in Splenocyte Medium (HyClone RPMI supplemented with 10% heat-inactivated FBS, 0.5× non-essential amino acids, 10 mM HEPES, 50 uM beta mercaptoethanol) and incubated at 37° C., 5% CO2 for 2 h to remove adherent cells. Suspension cells were seeded in 96 well plates at 50,000 cells per well and incubated at 37° C., 5% CO2 for 1 h. Splenocytes were pre-treated in triplicate with 10,000 nM curves of Formula 1 compounds for 1 h, followed by stimulation of B cell proliferation with 2.5 ug/ml anti-IgM F(ab′)2 (Jackson ImmunoResearch) for 72 h. Cell proliferation was measured by Cell Titer-Glo Luminescent Assay (Promega). EC50 values (50% proliferation in the presence of compound as compared to vehicle treated controls) were calculated from dose response compound curves using GraphPad Prism Software.
EC50 values are reported in Table 4: • a—Less than 100 nM; b—less than 1000 nM; c—more than 1000 nM

[1] = biological target: T1, histidine tagged recombinant human full-length Bruton Agammaglobulinemia Tyrosine Kinase (Btk) (Homo sapiens, UniProt Q06187); experiment: Btk kinase inhibition assay (fluorescence polarization, KinEASE FP Fluorescein Green); format: biochemical; conditions: 10 μM ATP, 250 μM substrate, 60 minutes, room temperature; Ki from IC50 by Cheng-Prusoff; read-out: ki50 (nM), Inhibition of Btk
T1 construct: recombinant human full-length Bruton Agammaglobulinemia Tyrosine Kinase (Btk); histidine tag
Description: (§1) Kinase Binding Btk and Lck Kinase Inhibition Assay
(§2) Fluorescence polarization-based kinase assays were performed in 384 well-plate format using histidine tagged recombinant human full-length Bruton Agammaglobulinemia Tyrosine Kinase (Btk) or histidine tagged recombinant Human Lymphocyte-Specific Protein Tyrosine Kinase (Lck) and a modified protocol of the KinEASE™ FP Fluorescein Green Assay supplied from Millipore. Kinase reaction were performed at room temperature for 60 minutes in presence of 250 μM substrate, 10 μM ATP and variable test article concentrations. The reaction was stopped with EDTA/kinease detection reagents and the polarization measured on a Tecan 500 instrument. From the dose-response curve obtained, the IC50 was calculated using Graph Pad Prisms® using a non-linear fit curve. The Km for ATP on each enzyme was experimentally determined and the Ki values calculated using the Cheng-Prusoff equation (see: Cheng Y, Prusoff W H. (1973) Relationship between the inhibition constant (K1) and the concentration of inhibitor which causes 50 percent inhibition (I50) of an enzymatic reaction”. Biochem Pharmacol 22 (23): 3099-108).
(§3) ki values are reported in Tables 2 and 3: • a—Less than 100 nM; b—less than 1000 nM; c—more than 1000 nM

[2] = biological target: T2, histidine tagged recombinant Human Lymphocyte-Specific Protein Tyrosine Kinase (Lck) (Homo sapiens, UniProt P06239); experiment: Lck kinase inhibition assay (fluorescence polarization, KinEASE FP Fluorescein Green); format: biochemical; conditions: 10 μM ATP, 250 μM substrate, 60 minutes, room temperature; Ki from IC50 by Cheng-Prusoff
T2 construct: histidine tag
Description: as §1, §2, §3

T2 sequence (P06239 whole entry): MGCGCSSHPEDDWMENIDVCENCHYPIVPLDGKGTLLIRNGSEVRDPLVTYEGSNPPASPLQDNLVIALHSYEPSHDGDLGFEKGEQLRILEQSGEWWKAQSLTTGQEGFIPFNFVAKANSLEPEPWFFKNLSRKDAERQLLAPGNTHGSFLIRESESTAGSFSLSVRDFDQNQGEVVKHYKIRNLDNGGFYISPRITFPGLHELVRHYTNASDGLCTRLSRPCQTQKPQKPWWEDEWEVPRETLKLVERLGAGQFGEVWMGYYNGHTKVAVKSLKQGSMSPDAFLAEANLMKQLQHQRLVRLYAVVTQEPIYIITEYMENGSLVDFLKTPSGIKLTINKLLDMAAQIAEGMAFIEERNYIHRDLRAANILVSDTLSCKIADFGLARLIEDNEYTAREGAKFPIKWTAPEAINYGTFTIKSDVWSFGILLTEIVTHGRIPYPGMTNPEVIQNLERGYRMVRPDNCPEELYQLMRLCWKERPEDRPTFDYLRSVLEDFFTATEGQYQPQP
T1 sequence (Q06187 whole entry): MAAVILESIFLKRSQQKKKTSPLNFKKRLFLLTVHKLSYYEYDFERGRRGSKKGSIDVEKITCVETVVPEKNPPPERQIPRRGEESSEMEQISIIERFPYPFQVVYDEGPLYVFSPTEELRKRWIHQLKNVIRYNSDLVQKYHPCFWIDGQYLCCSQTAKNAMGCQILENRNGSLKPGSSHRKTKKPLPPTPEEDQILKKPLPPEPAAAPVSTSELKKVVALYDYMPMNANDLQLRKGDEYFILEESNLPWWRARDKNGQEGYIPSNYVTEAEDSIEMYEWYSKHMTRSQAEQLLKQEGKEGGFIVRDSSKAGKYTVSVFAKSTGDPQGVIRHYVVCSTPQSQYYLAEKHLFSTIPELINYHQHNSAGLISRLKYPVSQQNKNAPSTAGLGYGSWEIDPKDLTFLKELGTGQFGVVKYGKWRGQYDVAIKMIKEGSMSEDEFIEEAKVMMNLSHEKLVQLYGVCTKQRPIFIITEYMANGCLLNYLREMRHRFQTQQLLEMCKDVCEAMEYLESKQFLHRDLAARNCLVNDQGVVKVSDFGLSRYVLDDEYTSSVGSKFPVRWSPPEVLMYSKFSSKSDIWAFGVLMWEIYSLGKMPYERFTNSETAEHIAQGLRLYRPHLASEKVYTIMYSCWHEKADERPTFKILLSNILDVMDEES

Row | Compound | EC50 (mouse splenocytes) [nM] | Ki [1] [nM] | Ki [2] [nM]
1 | Nc1ncnc2c3c(n(-c4ccc(Oc5ccccc5)cc4)c12)COC3CCCOc1ccccc1 (stereo not drawn) [Compound 36] | > 1000 | > 1000 | < 1000
2 | CC1OCc2c1c1ncnc(N)c1n2-c1ccc(Oc2cccc(C#N)c2)cc1 (stereo not drawn) [Compound 37] | > 1000 | > 1000 | > 1000
3 | CC1OCc2c1c1ncnc(N)c1n2-c1ccc(Oc2cccc(C(N)=O)c2)cc1 (stereo not drawn) [Compound 38] | > 1000 | > 1000 | > 1000
4 | CC1OCc2c1c1ncnc(N)c1n2-c1ccc(Oc2ccccc2)c(Cl)c1 (stereo not drawn) [Compound 39] | > 1000 | < 1000 | < 100
5 | CC1OCc2c1c1ncnc(N)c1n2-c1ccc(Oc2ccccc2)c(F)c1 (stereo not drawn) [Compound 40] | 100 to 1000 | < 1000 | < 100
6 | CCOc1cccc(Oc2ccc(-n3c4c(c5ncnc(N)c53)C(C)OC4)cc2)c1 (stereo not drawn) [Compound 41] | 100 to 1000 | < 100 | < 100
7 | CC1OCc2c1c1ncnc(N)c1n2-c1ccc(Oc2ccc(F)cc2)cc1 (stereo not drawn) [Compound 42] | > 1000 | > 1000 | < 1000
8 | CC1OCc2c1c1ncnc(N)c1n2-c1ccc(Oc2cccc(OCc3ccccc3)c2)cc1 (stereo not drawn) [Compound 43] | 100 to 1000 | < 100 | < 100
9 | CC1OCc2c1c1ncnc(N)c1n2-c1ccc(Oc2cccc(O)c2)cc1 (stereo not drawn) [Compound 44] | > 1000 | < 100 | < 100
10 | CC1OCc2c1c1ncnc(N)c1n2-c1ccc(Oc2cccc([N+](=O)[O-])c2)cc1 (stereo not drawn) [Compound 45] | > 1000 | > 1000 | < 1000
11 | CC1OCc2c1c1ncnc(N)c1n2-c1ccc(Oc2cccc(OCC#N)c2)cc1 (stereo not drawn) [Compound 46] | 100 to 1000 | < 100 | < 100
12 | CC1OCc2c1c1ncnc(N)c1n2-c1ccc(Oc2cccc(OCc3ccc(F)cc3)c2)cc1 (stereo not drawn) [Compound 49] | 100 to 1000 | < 100 | < 100
13 | CC1OCc2c1c1ncnc(N)c1n2-c1ccc(Oc2cccc(OCCOc3ccc(Cl)cc3)c2)cc1 (stereo not drawn) [Compound 50] | > 1000 | < 100 | < 100
14 | CC1OCc2c1c1ncnc(N)c1n2-c1ccc(Oc2cccc(OCc3cccnc3)c2)cc1 (stereo not drawn) [Compound 53] | 100 to 1000 | < 100 | < 100
15 | CC1OCc2c1c1ncnc(N)c1n2-c1ccc(Oc2cccc(OCc3ccncc3)c2)cc1 (stereo not drawn) [Compound 54] | > 1000 | < 100 | < 100
16 | CC1OCc2c1c1ncnc(N)c1n2-c1ccc(Oc2cccc(OCC3CCCCC3)c2)cc1 (stereo not drawn) [Compound 56] | > 1000 | < 100 | < 100
17 | CC1OCc2c1c1ncnc(N)c1n2-c1ccc(Oc2cccc(OCc3ccc(C(F)(F)F)cc3)c2)cc1 (stereo not drawn) [Compound 57] | > 1000 | < 100 | < 100
18 | CC1OCc2c1c1ncnc(N)c1n2-c1ccc(Oc2ccccc2C#N)cc1 (stereo not drawn) [Compound 58] | 100 to 1000 | < 1000 | < 100
19 | COc1cc(F)cc(Oc2ccc(-n3c4c(c5ncnc(N)c53)C(C)OC4)cc2)c1 (stereo not drawn) [Compound 59] | 100 to 1000 | < 1000 | < 100
20 | CC1OCc2c1c1ncnc(N)c1n2-c1ccc(Oc2ccccc2C(N)=O)cc1 (stereo not drawn) [Compound 60] | > 1000 | > 1000 | < 1000
21 | Nc1ncnc2c3c(n(-c4ccc(Oc5cccc(O)c5)cc4)c12)CCC3 [Compound 61] | > 1000 | > 1000 | < 100
